Experimental data taken from publication PMC11969553, “Expression of Human β3GalT5–1 in Insect Cells as Active Glycoforms for the Efficient Synthesis of Cancer-Associated Globo-Series Glycans” (Journal of the American Chemical Society, 2025).

What was measured:
membrane-bound β3GalT5–1 = biological target: T1, membrane-bound β3GalT5–1 (Homo sapiens, UniProt Q9Y2C3); experiment: galactosyltransferase activity; assay type: biochemical; conditions: UDP-Gal, with or without 1% LMNG
T1 construct: gene B3GALT5; full length M1-V310, C-terminal Flag tag, expressed in HEK293 cells, LMNG-extracted, anti-Flag purified
T1 sequence (Q9Y2C3 1-310): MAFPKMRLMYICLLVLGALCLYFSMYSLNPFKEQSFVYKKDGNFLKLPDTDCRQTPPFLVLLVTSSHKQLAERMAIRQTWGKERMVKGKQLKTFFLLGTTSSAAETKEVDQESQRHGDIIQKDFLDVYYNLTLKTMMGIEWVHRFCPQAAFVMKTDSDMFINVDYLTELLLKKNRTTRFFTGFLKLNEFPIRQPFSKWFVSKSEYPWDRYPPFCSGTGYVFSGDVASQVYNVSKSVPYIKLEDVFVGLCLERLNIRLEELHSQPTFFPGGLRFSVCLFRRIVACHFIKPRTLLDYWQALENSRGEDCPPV

[1] = biological target: T2, soluble β3GalT5-1 (insect) (Homo sapiens, UniProt Q9Y2C3); experiment: X-ray crystal structure; assay type: binding; conditions: acceptor site, Mn2+
T2 construct: gene B3GALT5; crystal: Phe31-Pro308 stated, Asp41-Pro308 visible
T2 sequence (Q9Y2C3 29-310): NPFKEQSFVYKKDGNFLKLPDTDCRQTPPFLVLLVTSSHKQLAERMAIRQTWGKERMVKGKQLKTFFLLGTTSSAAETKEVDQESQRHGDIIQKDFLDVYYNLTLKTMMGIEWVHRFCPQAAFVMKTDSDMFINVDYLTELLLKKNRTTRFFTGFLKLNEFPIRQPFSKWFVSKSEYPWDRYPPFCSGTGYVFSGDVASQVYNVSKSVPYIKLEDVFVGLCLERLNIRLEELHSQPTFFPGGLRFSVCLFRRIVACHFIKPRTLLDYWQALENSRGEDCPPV

membrane-bound β3GalT5–2 = biological target: T3, membrane-bound β3GalT5–2 (Homo sapiens, UniProt A0A0A0MS93); experiment: galactosyltransferase activity; assay type: biochemical; conditions: UDP-Gal, with or without 1% LMNG
T3 construct: gene B3GALT5; full length, 314 residues, C-terminal Flag tag, expressed in HEK293 cells, LMNG-extracted, anti-Flag purified
T3 sequence (A0A0A0MS93 1-314): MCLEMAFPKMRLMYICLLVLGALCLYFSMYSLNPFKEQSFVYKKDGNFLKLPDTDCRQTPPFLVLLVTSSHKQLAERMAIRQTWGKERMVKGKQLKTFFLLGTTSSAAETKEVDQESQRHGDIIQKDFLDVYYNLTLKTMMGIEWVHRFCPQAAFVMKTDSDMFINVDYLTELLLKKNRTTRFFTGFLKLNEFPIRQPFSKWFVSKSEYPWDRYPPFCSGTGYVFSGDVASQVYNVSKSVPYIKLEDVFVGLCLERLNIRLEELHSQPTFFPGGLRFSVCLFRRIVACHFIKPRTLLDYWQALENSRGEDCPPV

CC(=O)N[C@H]1[C@H](O[C@H]2[C@@H](O)[C@@H](CO)O[C@H](O[C@@H]3[C@H](O)[C@@H](O)[C@H](O[C@H]4[C@H](O)[C@@H](O)C(O)O[C@@H]4CO)O[C@@H]3CO)[C@@H]2O)O[C@H](CO)[C@H](O)[C@@H]1O (stereo partly drawn) [Gb4 glycan]
galactosyltransferase activity (membrane-bound β3GalT5–1): regardless of whether Gb4 or Gb4 glycan was used as a substrate | X-ray crystal structure [1]: the acceptor substrate Gb4 glycan is represented by pink sticks | galactosyltransferase activity (membrane-bound β3GalT5–2): regardless of whether Gb4 or Gb4 glycan was used as a substrate
